The subject of assay [1] is TNF-α. The experiment in a line: Induction of cytokines in vitro: TNF-α release in human whole blood (ELISA). The format is cell-based. Conditions: read-out: TNFa Stimulation Value. The protocol:
The ability to trigger a stimulatory response in macrophages is likely a necessary characteristic of molecules with imunoadjuvant properties. Therefore, the ability of compounds to stimulate release of TNF-α and other cytokines from immune cells is tested as an indication of their ability to stimulate an immune response, which may result in adjuvant activity.
The most readily available human system to test compound activity on monocytes/macrophages is in whole blood. Various concentrations of compounds of the invention were added as 10×stocks in 50 μl of 5% dextrose followed by 50 μl of 5% dextrose into 400 μl of heparinized whole blood obtained from normal volunteers (18-51 years old; 110-230 lb) into the wells of plastic assay plates, for a total volume of 500 μl/well (final concentration of whole blood was 80%). The 10×stocks were made by dissolving compounds to 1 mM in water and sonicating them for 2 minutes in an ice bath. The compounds were then brought to 10× in 5% dextrose. After a 3-hour incubation with gentle shaking at 37° C. in a 5% CO2 atmosphere, the assay plates were centrifuged at 1000×g for 10 minutes at 4° C. and plasma was drawn off and frozen at −80° C. Plasma samples were analyzed for TNF-α by ELISA (R & D Systems, Minneapolis, Minn.). Each assay point was tested in triplicate.
The stimulatory value is the compound concentration needed to stimulate TNF-α release equal to half the release obtained from the same whole blood sample with 10 ng/ml of LPS.

The subject of assay [2] is tetanus toxoid-specific IgG. Also on record: species or system Balb/c mice. The settings on record: mouse, in vivo, sc.

Like-named read-outs stand apart in the source and are kept apart here. Bounds are passed on as bounds.

With `CCCCCCCCCCCCC/C=C/[C@@H](OC(=O)CCCCCCCCCCC)[C@H](COP(=O)(O)OCCNC(=O)NCCOP(=O)(O)OC[C@H](NC(=O)CCCCCCCCCCCCC)[C@@H](/C=C/CCCCCCCCCCCCC)OC(=O)CCCCCCCCCCC)NC(=O)CCCCCCCCCCCCC` (single isomer, unassigned) [ER-805270], the EC50 in assay [1] (compound concentration needed to stimulate TNF-α release equal to half the release obtained with 10 ng/ml LPS, 80% heparinized human whole blood, 3-hour incubation, 37° C.) is above 10000 nM.
In the case of `CCCCCCCCCCCCCC(=O)N[C@@H](COP(=O)([O-])OCCNC(=O)NCCOP(=O)([O-])OC[C@H](NC(=O)CCCCCCCCCCCCC)[C@H](CCCCCCCCCCC)OC(=O)CCCCCCCCCCC)[C@H](CCCCCCCCCCC)OC(=O)CCCCCCCCCCC.[Na+].[Na+]` [ER-804874], in assay [1] (Homo sapiens, 3 h), the EC50 was found to be 9 nM. Moreover, in assay [2], the “Mean concentration of tetanus toxoid-specific IgG (6 mice/group)” value (“Mean concentration … (6 mice/group)” below) stood at 5640 µg/mL.
For `CCCCCCCCCCCCC/C=C/[C@@H](OC(=O)CCCCCCCCCCC)[C@H](COP(=O)([O-])OCCNC(=O)NCCOP(=O)([O-])OC[C@H](NC(=O)CCCCCCCCCCCCC)[C@@H](/C=C/CCCCCCCCCCCCC)OC(=O)CCCCCCCCCCC)NC(=O)CCCCCCCCCCCCC.[Na+].[Na+]` [ER-805270], the “Mean concentration … (6 mice/group)” value in assay [2] was determined as 1995 µg/mL.
For the molecule `CCCCCCCCCCCCC(=O)O[C@H](CCOP(=O)([O-])OCCNC(=O)NCCOP(=O)([O-])OCC[C@@H](OC(=O)CCCCCCCCCCCC)C(CCCCCCCCCC)OC(=O)CCCCCCCCCC)C(CCCCCCCCCC)OC(=O)CCCCCCCCCC.[Na+].[Na+]` (stereo partly shown) [ER-805271], the EC50 in assay [1] (Homo sapiens, 3 h) turned out to be 1600 nM. The “Mean concentration … (6 mice/group)” value in assay [2] is 2010 µg/mL.
`CCCCCCCCCCCCC(=O)N[C@@H](CCOP(=O)([O-])OCCNC(=O)NCCOP(=O)([O-])OCC[C@H](NC(=O)CCCCCCCCCCCC)C(CCCCCCCCCC)OC(=O)CCCCCCCCCC)C(CCCCCCCCCC)OC(=O)CCCCCCCCCC.[Na+].[Na+]` (stereo partly shown) [ER-805274]: the EC50 in assay [1] (Homo sapiens, 3 h) was determined as 14 nM. Also, the “Mean concentration … (6 mice/group)” value in assay [2] amounted to 3218 µg/mL.
Consider `CCCCCCCCCCCCCC(=O)NC(CCCCCCCCC)CC[C@@H](COP(=O)(O)OCCNC(=O)NCCOP(=O)(O)OC[C@H](CCC(CCCCCCCCC)NC(=O)CCCCCCCCCCCCC)OC(=O)CCCCCCCCCCCCC)OC(=O)CCCCCCCCCCCCC` (stereo partly shown) [ER-805328], for which the EC50 in assay [1] (Homo sapiens, 3 h) was found to be 205 nM.
For `CCCCCCCCCCCCCC(=O)N[C@H](CCCC(CCCCCCCC)OC(=O)CCCCCCCCCCCC)COP(=O)(O)OCCNC(=O)NCCOP(=O)(O)OC[C@@H](CCCC(CCCCCCCC)OC(=O)CCCCCCCCCCCC)NC(=O)CCCCCCCCCCCCC` (stereo partly shown) [ER-805517], in assay [1] (Homo sapiens, 3 h), the EC50 was 70 nM.
